Assay results as given in PubChem BioAssay AID504675 (Southern Research Specialized Biocontainment Screening …, 2011).

What follows are compounds tested on E. coli UTI89 K1 capsule, phage K1F lysis, OD600 (assay: UTI89 protection from K1F phage killing – strain UTI89, C7 control, set 3, capsule biogenesis inhibitor project, dose response (AID 504675)). Conditions: measured here: cytotoxicity test.
N=c1n(CCN2CCCC2)c2ccccc2n1CC(O)c1ccc(Cl)c(Cl)c1 (stereo not given) was tested, and the CC50 was 9.38 µM.
Compound COc1ccc2nc(NC(=O)c3ccccc3)sc2c1 has a CC50 of 45.4 µM.
Compound O=C(O)c1cc(-c2cccc(F)c2)nc2ccccc12 has a CC50 greater than 300 µM.
Compound COc1ccc2nc(NC(=O)c3ccco3)sc2c1 has a CC50 of 93.4 µM.
COc1cccc(-c2cc(C(=O)O)c3ccccc3n2)c1 gave a CC50 of 78.3 µM.
In the case of COc1ccc(C(=O)Nc2nc3ccc(OC)cc3s2)cc1, the CC50 is reported as greater than 300 µM.
Compound COc1ccc2nc(NC(=O)c3cccs3)sc2c1 has a CC50 of 104 µM.
In the case of COc1cccc(C(=O)Nc2nc3ccc(OC)cc3s2)c1, the CC50 is reported as 23.4 µM.
COc1ccc2nc(NC(=O)c3ccccc3OC)sc2c1 was tested, and the CC50 was 66.8 µM.
With COc1ccc2nc(NC(=O)c3ccc(F)cc3)sc2c1 the CC50 was 21.7 µM.
